What was measured:
E. Coli ATCC.35218 = assay: Antibacterial activity, diffusion method in agar-germs (2.a); format: cell-based
Description: (§1) In a Tryprone Soy Agar diffusion medium ATCC (American Type Culture Collection) standard bacterial strains are inoculated, preparing a final solution of 10^6 cfu/g (colony forming unities) of the following strains:
(§2) Every plate contains 20 ml of a medium where 2 equidistant wells having a standard diameter are Formed and in each of these wells […] of the above described bacterial solution are inoculated. 2 plates are prepared for every couple of compounds to be tested at different concentrations, and For every strain, and each of these plates is compared with a white (sterile demineralized water inoculum). After the inoculum, the plates are placed in the refrigerator to favour diffusion and temporaneously blocking bacterial growth.
(§3) The compounds hexadecyltrimethylammonium traumatate and benzyldimethylhexadecylammonium traumatare respectively versus hexadecyl trimethylammonium bromide and benzyldimethylhexadecylammonium chloride are solubilized in demineralized water to Form solutions at the concentrations: 0.1; 0.5; and 1%.
(§4) The antibacterial effect is evaluated by measuring bacterial diffusion halo around the well vs white (halo absence).

PS Maltophila ATCC.13637 = assay: as above; format: cell-based
Description: as §1, §2, §3, §4

[1] = system: Pseudomonas Aeruginosa ATCC.35422; assay: as above; format: cell-based
Description: as §1, §2, §3, §4

[2] = system: Aspergillus Niger ATCC 16404; assay: as above; format: cell-based; parameters: unit not given here
Description: as §1, §2, §3, §4

[3] = system: Candida Albicans ATCC.10231; assay: as above; format: cell-based; parameters: unit not given here
Description: as §1, §2, §3, §4

PS Cepacia ATCC.25416 = assay: as above; format: cell-based; parameters: unit not given here
Description: as §1, §2, §3, §4

[4] = system: Stafilococcus Aureus ATCC.65380; assay: as above; format: cell-based; parameters: unit not given here
Description: as §1, §2, §3, §4

[5] = system: Stafilococcus Epidermidis ATCC.14990; assay: as above; format: cell-based; parameters: unit not given here
Description: as §1, §2, §3, §4

[6] = system: Streptococcus Fecalis ATCC.291212; assay: as above; format: cell-based; parameters: unit not given here
Description: as §1, §2, §3, §4

[7] = system: standard bacterial strains; assay: Antibacterial activity, diffusion method in agar-germs, all strains (2.a); format: cell-based; details: versus hexadecyltrimethylammonium bromide and benzyldimethylhexadecylammonium chloride; in words
Description: as §1, §2, §3, §4

B.subtilis ATCC 6633 = assay: Evaluation of bacteriostatic minimal concentration (BMC); format: cell-based; details: Table 2.b)5; test concentrations given in μg/ml
Description: (§5) 1. Culture Medium: Tryprone Soy Broth (TBS) - Biogenetics
(§6) Microbic standard strains from American Type Culture Collection (ATCC) were used, chosen among aerobic Gram positive and negative as follows:
(§7) The broths culture of the different species are prepared growing the standard strain (kept in Tryptic Soy Agar (TSA) slent at 5° C.) in Tryptone Soy Broth (TSB) for 12 hours at 37° C. 10 ml are then taken up from each culture, centrifugated for 3 times at 3500 PM washing each time the sediment using 10 ml of sterile saline solution. The sediment is resuspended in the saline solution until obtainment of a turbidity corresponding to the Mc Farland standard solution (the suspension title must be […] UFC/ml).
(§8) The compounds, dissolved as stock solution, were added to test tubes containing 5 ml TBS in order to obtain the desired Final concentration 10000; 5000; 1000; 200; 40; 2; 0.4; 0.05 μg/ml (culture medium maximal dilution=1/10).
(§9) 50 μl of bacterial suspension are added to the tube containing the compounds to be tested and incubated at 37° C.: the densitometric determination is made in comparison with Mc Farland standard solution 24 and 48 hours later.
(§10) After the incubation time the suspensions ape gently agitated; 50 μl of each suspension are inoculated in tubes containing […] of TSB and incubated at 37° C.; the densitometric determination is made 48 hours later.
(§11) BMC is defined by comparison between the two densitometric evaluation.

C.albicans ATCC 10231 = assay: as above; format: cell-based; details: Table 2.b)6; test concentrations given in μg/ml
Description: as §5, §6, §7, §8, §9, §10, §11

Ps.aeruginosa ATCC 35422 = assay: as above; format: cell-based; details: Table 2.b)1; test concentrations given in μg/ml
Description: as §5, §6, §7, §8, §9, §10, §11

St.aureus ATCC 65380 = assay: as above; format: cell-based; details: Table 2.b)2; test concentrations given in μg/ml
Description: as §5, §6, §7, §8, §9, §10, §11

[8] = system: St.epidermidis ATCC 14990; assay: as above; format: cell-based; details: Table 2.b)4; test concentrations given in μg/ml
Description: as §5, §6, §7, §8, §9, §10, §11

E.coli ATCC 35218 = assay: microbe, parasite or virus in culture; format: cell-based; details: Table 2.b)3; test concentrations given in μg/ml
Description: as §5, §6, §7, §8, §9, §10, §11

[9] = Physical chemical characteristics: solubility in water and organic solvents
fibroblast cells L929 = assay: Cell growth of fibroblast L929 culture, crystal violet colorimetry (1.2); details: in words
Description: Mice fibroblast cells L929, clone derived from connective tissue, are suspended in Eagle's MEM with penicillin (100U/ml)--streptomycin (0.1 mg/ml), seeded in culture dishes (10000cells/dish) and cultured overnight. After 24 hours the culture medium was decantated and the tested compounds are added. The cellular density is measured after 4 (t0) and 24 (t1) hours of incubation at 37° C. in 5% CO2 air by colorimetry using crystal violet (exposure for 15 minutes, room temperature; absorbance 570 nm).
The cells number is measured at 4 (t0) and 24 (t1) hours from the seeding. The cell growth is evaluated at t1/t0 rate (%).

3T3 fibroblasts = assay: Cellular proliferation of 3T3 fibroblasts, neutral red colorimetry (1.1a); format: cell-based, Mice
Description: Experiments on 3T3 fibroblasts
Mice 3T3 fibroblasts cultures sown at a 40.000/ml concentration on plates having 6 wells in a DMEM culture medium enriched with 10% calf serum are used. After 24 hours culture, the 90 prepared wells are divided in order to allow the analyses of the compounds of the invention, every compound to be tested being used respectively at a concentration of 0.1, 1 and 10 μg/ml by subsequent evaluations after 48 and 72 hours of incubation.
Hexadecyltrimethylammoniun (ETA) traumatare: solubilized in water and brought to the desired final concentrations of 0.1. 1 and 10 μg/ml by progressive dilutions;
Ethanolamine traumatate: solubilized in water and brought to the final concentrations of 0.1, 1 and 10 μg/ml by progressive dilutions;
Traumatic acid: neutralized with sodium hydroxyde and solubilized in water, then brought to the final concentrations of 0.1, 1 and 10 μg/ml by progressive dilutions with the culture medium.
The compounds are added to the cells after 24 hours culture. The cells number is measured by colorimetry with the neutral red intravital stain after 24, 48, 72 hours of incubation.

Substance: benzylmethylhexadecylammonium trans-traumatate
- bacterial diffusion halo (E. Coli ATCC.35218; sol. 0.1%): n.h.
- bacterial diffusion halo (E. Coli ATCC.35218; sol. 0.5%): n.h.
- bacterial diffusion halo (E. Coli ATCC.35218; sol. 1%): 13
- bacterial diffusion halo (PS Maltophila ATCC.13637; sol. 0.1%): n.h.
- bacterial diffusion halo (PS Maltophila ATCC.13637; sol. 0.5%): n.h.
- bacterial diffusion halo (PS Maltophila ATCC.13637; sol. 1%): 15
- bacterial diffusion halo ([1]; sol. 0.1%): n.h.
- bacterial diffusion halo ([1]; sol. 0.5%): 12
- bacterial diffusion halo ([1]; sol. 1%): 14
- bacterial diffusion halo ([2]; sol. 0.1%): 12
- bacterial diffusion halo ([2]; sol. 0.5%): 16
- bacterial diffusion halo ([2]; sol. 1%): 19
- bacterial diffusion halo ([3]; sol. 0.1%): 13
- bacterial diffusion halo ([3]; sol. 0.5%): 15
- bacterial diffusion halo ([3]; sol. 1%): 16
- bacterial diffusion halo (PS Cepacia ATCC.25416; sol. 0.1%): 12
- bacterial diffusion halo (PS Cepacia ATCC.25416; sol. 0.5%): 15
- bacterial diffusion halo (PS Cepacia ATCC.25416; sol. 1%): 15
- bacterial diffusion halo ([4]; sol. 0.1%): 17
- bacterial diffusion halo ([4]; sol. 0.5%): 22
- bacterial diffusion halo ([4]; sol. 1%): 22
- bacterial diffusion halo ([5]; sol. 0.1%): 15
- bacterial diffusion halo ([5]; sol. 0.5%): 17
- bacterial diffusion halo ([5]; sol. 1%): 19
- bacterial diffusion halo ([6]; sol. 0.1%): 12
- bacterial diffusion halo ([6]; sol. 0.5%): 14
- bacterial diffusion halo ([6]; sol. 1%): 15
- antibacterial and bacteriostatic activity profile [7]: antibacterial and bacteriostatic activity profile comparable to that of the comparison products
- MINIMAL BACTERIAL CONCENTRATION (B.subtilis ATCC 6633): 1,000.00
- MINIMAL BACTERIAL CONCENTRATION (C.albicans ATCC 10231): 2.00
- MINIMAL BACTERIAL CONCENTRATION (Ps.aeruginosa ATCC 35422): 10,000.00
- MINIMAL BACTERIAL CONCENTRATION (St.aureus ATCC 65380): 1,000.00
- MINIMAL BACTERIAL CONCENTRATION [8]: 2.00
- MINIMAL BACTERIAL CONCENTRATION (E.coli ATCC 35218): 200.00
- organic solvent solubility ([9]; in ethanol): > 20 mg/mL
- solubility in water ([9]; water): > 10 mg/mL

Substance: gentamycin trans-traumatate [Gentamycin Traumatate]
- MINIMAL BACTERIAL CONCENTRATION (B.subtilis ATCC 6633): 40.00
- MINIMAL BACTERIAL CONCENTRATION (C.albicans ATCC 10231): > 10,000
- MINIMAL BACTERIAL CONCENTRATION (Ps.aeruginosa ATCC 35422): 1,000.00
- MINIMAL BACTERIAL CONCENTRATION (St.aureus ATCC 65380): 1,000.00
- MINIMAL BACTERIAL CONCENTRATION [8]: 200.00
- MINIMAL BACTERIAL CONCENTRATION (E.coli ATCC 35218): 200.00
- cell growth effect compared to traumatic acid (fibroblast cells L929): higher than traumatic acid effect
- promotion of cell growth (proliferation) (fibroblast cells L929; benzethonium > gentamycin salt): capable to promote cell growth (proliferation) according to dose-effect relationship

Substance: hexadecyltrimethylammonium trans-traumatate [Hexadecyltrimethyl Ammonium Traumatate]
- effect on cells proliferation (3T3 fibroblasts; 0.1 μg/ml, in words): able to affect cells proliferation according to a not statistically significant trend
- effect on cellular proliferation (3T3 fibroblasts; 1 μg/ml, in words, ETA salt > ethanolamine salt = traumatic acid): able to increase cellular proliferation
- cells numeration (colorimetric, neutral red) (3T3 fibroblasts; 24 hours of incubation, 0.1 (head: μg/ml), control 0.579 ± 0.021): 0.575 ± 0.041
- cells numeration (colorimetric, neutral red) (3T3 fibroblasts; 24 hours of incubation, 1.0 (head: μg/ml), control 0.579 ± 0.021): 0.619 ± 0.033
- cells numeration (colorimetric, neutral red) (3T3 fibroblasts; 24 hours of incubation, 10.0 (head: μg/ml), control 0.579 ± 0.021): 0.491 ± 0.021
- cells numeration (colorimetric, neutral red) (3T3 fibroblasts; 48 hours of incubation, 0.1 (head: μg/ml), control 1.334 ± 0.050): 1.553 ± 0.061
- cells numeration (colorimetric, neutral red) (3T3 fibroblasts; 48 hours of incubation, 1.0 (head: μg/ml), control 1.334 ± 0.050): 1.501 ± 0.081
- cells numeration (colorimetric, neutral red) (3T3 fibroblasts; 48 hours of incubation, 10.0 (head: μg/ml), control 1.334 ± 0.050, ** p < 0.01 significant reduction): 0.842 ± 0.078
- cells numeration (colorimetric, neutral red) (3T3 fibroblasts; 72 hours of incubation, 0.1 (head: μg/ml), control 2.360 ± 0.125): 2.501 ± 0.131
- cells numeration (colorimetric, neutral red) (3T3 fibroblasts; 72 hours of incubation, 1.0 (head: μg/ml), control 2.360 ± 0.125): 2.503 ± 0.100
- cells numeration (colorimetric, neutral red) (3T3 fibroblasts; 72 hours of incubation, 10.0 (head: μg/ml), control 2.360 ± 0.125, ** p < 0.01 significant reduction): 1.385 ± 1.63
- time necessary for the cells to reach the confluence (3T3 fibroblasts; side control experiment, ETA and ethanolamine salts > traumatic acid): reduce the time normally necessary for the cells to reach the confluence
- bacterial diffusion halo (E. Coli ATCC.35218; sol. 0.1%): n.h.
- bacterial diffusion halo (E. Coli ATCC.35218; sol. 0.5%): 13
- bacterial diffusion halo (E. Coli ATCC.35218; sol. 1%): 15
- bacterial diffusion halo (PS Maltophila ATCC.13637; sol. 0.1%): n.h.
- bacterial diffusion halo (PS Maltophila ATCC.13637; sol. 0.5%): 15
- bacterial diffusion halo (PS Maltophila ATCC.13637; sol. 1%): 21
- bacterial diffusion halo ([1]; sol. 0.1%): n.h.
- bacterial diffusion halo ([1]; sol. 0.5%): n.h.
- bacterial diffusion halo ([1]; sol. 1%): n.h.
- bacterial diffusion halo ([2]; sol. 0.1%): 19
- bacterial diffusion halo ([2]; sol. 0.5%): 22
- bacterial diffusion halo ([2]; sol. 1%): 22
- bacterial diffusion halo ([3]; sol. 0.1%): 19
- bacterial diffusion halo ([3]; sol. 0.5%): 24
- bacterial diffusion halo ([3]; sol. 1%): 25
- bacterial diffusion halo (PS Cepacia ATCC.25416; sol. 0.1%): 18
- bacterial diffusion halo (PS Cepacia ATCC.25416; sol. 0.5%): 19
- bacterial diffusion halo (PS Cepacia ATCC.25416; sol. 1%): 22
- bacterial diffusion halo ([4]; sol. 0.1%): 21
- bacterial diffusion halo ([4]; sol. 0.5%): 24
- bacterial diffusion halo ([4]; sol. 1%): 24
- bacterial diffusion halo ([5]; sol. 0.1%): 20
- bacterial diffusion halo ([5]; sol. 0.5%): 22
- bacterial diffusion halo ([5]; sol. 1%): 22
- bacterial diffusion halo ([6]; sol. 0.1%): 20
- bacterial diffusion halo ([6]; sol. 0.5%): 22
- bacterial diffusion halo ([6]; sol. 1%): 22
- antibacterial and bacteriostatic activity profile [7]: antibacterial and bacteriostatic activity profile comparable to that of the comparison products
- MINIMAL BACTERIAL CONCENTRATION (B.subtilis ATCC 6633): 2.00
- MINIMAL BACTERIAL CONCENTRATION (C.albicans ATCC 10231): 2.00
- MINIMAL BACTERIAL CONCENTRATION (Ps.aeruginosa ATCC 35422): > 10,000
- MINIMAL BACTERIAL CONCENTRATION (St.aureus ATCC 65380): 1,000.00
- MINIMAL BACTERIAL CONCENTRATION [8]: 8.00
- MINIMAL BACTERIAL CONCENTRATION (E.coli ATCC 35218): 200.00
